{"source": "paper PMC8556375", "about": "“Binding interaction of a ring-hydroxylating dioxygenase with fluoranthene in Pseudomonas aeruginosa DN1” (Scientific Reports, 2021)", "target": "T1, RHD alpha subunit (RhdA, RS30940) (Pseudomonas aeruginosa, UniProt Q9HTF4)", "T1 construct": "gene gbcA; alpha subunit alone, 428 residues, His-tagged, pET-28a (NdeI/EcoRI), E. coli BL21 Star (DE3); no tag removal told", "T1 sequence (Q9HTF4 1-429)": "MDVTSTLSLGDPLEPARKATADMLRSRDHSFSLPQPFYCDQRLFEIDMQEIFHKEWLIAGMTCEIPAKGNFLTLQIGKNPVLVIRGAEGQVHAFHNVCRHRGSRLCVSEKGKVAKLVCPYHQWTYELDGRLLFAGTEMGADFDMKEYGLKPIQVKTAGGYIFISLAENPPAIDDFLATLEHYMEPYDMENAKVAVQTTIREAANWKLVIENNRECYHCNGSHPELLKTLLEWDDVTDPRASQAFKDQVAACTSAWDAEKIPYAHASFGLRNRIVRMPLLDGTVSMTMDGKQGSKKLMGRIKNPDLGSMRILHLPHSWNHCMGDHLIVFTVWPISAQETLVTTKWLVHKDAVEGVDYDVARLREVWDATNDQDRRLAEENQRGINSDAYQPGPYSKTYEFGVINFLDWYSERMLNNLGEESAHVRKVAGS", "experiment": "intrinsic tryptophan fluorescence quenching (Stern-Volmer)", "assay_type": "binding", "conditions": "phosphate buffer pH 7.5; 5.0 x 10^-6 mol/L protein; 298, 304 and 310 K; excitation 278 nm", "data": [{"smiles": "c1ccc2c(c1)-c1cccc3cccc-2c13", "note": "[fluoranthene]", "values": [{"measurement": "Stern-Volmer parameters", "result": "intrinsic fluorescence of RHD alpha subunit could be quenched by fluoranthene"}]}]}
